# Measured values as given in patent publication US6593343B2, “Quinoline derivatives” (Active Biotech AB, priority 1998, dated 2003).
# Assays:
# [1] = test system: fetuses of female rats; experiment: Teratogenic effects in the rat; format: in vivo
# [2] = test system: fetuses of female rats; conditions: rat, background statement; cited from earlier work
# [3] = test system: acute experimental autoimmune encephalomyelitis (aEAE); experiment: Acute experimental autoimmune encephalomyelitis (aEAE) inhibition; format: in vivo; conditions: at ≧5 mg/kg, mice, treatment control
# [4] = e.g. a flu-like syndrome; cited from earlier work
# [5] = test system: beagle dogs; experiment: Beagle Pain Syndrome (BPS); format: in vivo, dog
# Procedure: Beagle Pain Syndrome (BPS)
# The compounds were administrated intravenously to beagle dogs. The dosage was given for five consecutive days. The dogs were evaluated for clinical and laboratory signs of the pain syndrome, e.g. fever, increased erythrocyte sedimentation rate (ESR), alkaline phosphate (AP), induction of acute phase proteins and vasculitis.
SMILES,% malformed fetuses ([1]; 6 mg/kg p.o.) [%],% malformed fetuses ([1]; 30 mg/kg p.o.) [%],% malformed fetuses ([1]; 10 mg/kg p.o.) [%],teratogenicity (in words) [2],inhibition of aEAE [3],side effects in man (in words) [4],Beagle Pain Syndrome (in words) [5]
"COc1cccc2c1c(O)c(C(=O)N(C)c1ccc(C(F)(F)F)cc1)c(=O)n2C [Compound A, N-methyl-N-(4-trifluoromethyl-phenyl)-1,2-dihydro-4-hydroxy-5-methoxy-1-methyl-2-oxo-quinoline-3-carboxamide]",4,2,–,–,–,–,–
"CN(C(=O)c1c(O)c2c(Cl)cccc2n(C)c1=O)c1ccccc1 [Compound C, N-Methyl-N-phenyl-1,2-dihydro-4-hydroxy-5-chloro-1-methyl-2-oxo-quinoline-3-carboxamide]",37,–,–,–,–,–,–
"CN(C(=O)c1c(O)c2ccccc2n(C)c1=O)c1ccccc1 [Compound D, N-phenyl-N-methyl-1,2-dihydro-4-hydroxy-1-methyl-2-oxo-quinoline-3-carboxamide]",–,30,9,teratogenic in the rat,more than 50%,dose-limiting side effects,induce the Beagle Pain Syndrome
"CN(C(=O)c1c(O)c2c(Cl)cccc2n(C)c1=O)c1ccc(F)cc1F [Compound B, N-methyl-N-(2,4-difluoro-phenyl)-1,2-dihydro-4-hydroxy-5-chloro-1-methyl-2-oxo-quinoline-3-carboxamide]",0,–,–,–,–,–,–
